From patent US10052306B2 (LUC THERAPEUTICS, INC., priority 2013, dated 2018)
Several values for one entry are separate records, joined by “and”; a condition that tells them apart may be missing. Equal entries are not always repeated. Where two headings read alike, the source gives them in different places.

Tests used:
NR1/NR2B [1] = biological target: NR1/NR2B (Homo sapiens (Human), UniProt Q13224); assay: Cell assay: FDSS Ca2+ influx inhibition in HEK293 cells expressing NR1/NR2B; details: read-out: NR2B NAM IC50;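 also: Fluo-8 Ca2+ signal read on Hamamatsu FDSS 6000 after glutamate, glycine and Ca2+ challenge following 10 min compound preincubation, end/baseline fluorescence ratio compared with MK801 control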
NR1/NR2B (Homo sapiens (Human), UniProt Q13224), sequence (Q13224 27-1484, other chains not shown): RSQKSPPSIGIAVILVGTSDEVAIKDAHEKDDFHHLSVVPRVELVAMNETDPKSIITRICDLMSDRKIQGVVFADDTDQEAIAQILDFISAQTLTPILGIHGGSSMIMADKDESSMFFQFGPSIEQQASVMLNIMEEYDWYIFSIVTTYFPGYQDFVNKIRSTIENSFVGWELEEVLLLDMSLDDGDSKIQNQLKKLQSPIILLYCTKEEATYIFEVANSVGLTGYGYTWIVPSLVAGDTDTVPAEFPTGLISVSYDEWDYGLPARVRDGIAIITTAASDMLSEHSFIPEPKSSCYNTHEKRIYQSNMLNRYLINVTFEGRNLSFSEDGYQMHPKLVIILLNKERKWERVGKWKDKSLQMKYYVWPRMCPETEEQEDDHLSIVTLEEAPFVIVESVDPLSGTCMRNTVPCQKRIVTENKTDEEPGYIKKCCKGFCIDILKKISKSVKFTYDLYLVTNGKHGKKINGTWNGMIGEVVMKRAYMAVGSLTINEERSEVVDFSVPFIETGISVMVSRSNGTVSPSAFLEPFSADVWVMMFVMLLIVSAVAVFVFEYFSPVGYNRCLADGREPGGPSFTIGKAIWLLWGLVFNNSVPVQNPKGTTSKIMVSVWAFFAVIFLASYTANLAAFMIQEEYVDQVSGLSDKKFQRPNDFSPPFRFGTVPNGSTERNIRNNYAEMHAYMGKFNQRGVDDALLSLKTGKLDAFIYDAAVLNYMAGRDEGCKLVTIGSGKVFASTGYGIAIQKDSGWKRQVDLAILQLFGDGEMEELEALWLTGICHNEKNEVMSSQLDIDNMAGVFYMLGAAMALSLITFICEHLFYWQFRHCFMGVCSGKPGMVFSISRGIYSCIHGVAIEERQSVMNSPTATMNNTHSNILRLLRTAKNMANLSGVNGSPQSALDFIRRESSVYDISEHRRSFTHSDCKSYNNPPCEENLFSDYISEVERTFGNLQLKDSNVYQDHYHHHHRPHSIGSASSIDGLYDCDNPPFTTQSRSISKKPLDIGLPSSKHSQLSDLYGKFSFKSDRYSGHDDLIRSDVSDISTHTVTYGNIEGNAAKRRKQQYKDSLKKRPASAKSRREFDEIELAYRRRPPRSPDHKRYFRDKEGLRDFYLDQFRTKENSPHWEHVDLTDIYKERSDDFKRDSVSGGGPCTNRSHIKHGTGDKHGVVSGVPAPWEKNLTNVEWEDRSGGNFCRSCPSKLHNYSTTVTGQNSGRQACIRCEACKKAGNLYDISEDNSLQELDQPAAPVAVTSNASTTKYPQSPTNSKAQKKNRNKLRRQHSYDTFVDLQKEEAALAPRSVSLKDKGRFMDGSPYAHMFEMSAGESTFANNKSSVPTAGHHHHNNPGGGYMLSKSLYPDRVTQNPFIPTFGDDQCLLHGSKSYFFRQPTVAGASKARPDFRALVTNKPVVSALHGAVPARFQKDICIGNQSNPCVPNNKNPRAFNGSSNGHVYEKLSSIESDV

NR1/NR2B [2] = biological target: NR1/NR2B (Homo sapiens (Human), UniProt Q05586+Q13224); assay: as above; details: Binned Activity
NR1/NR2B (Homo sapiens (Human), UniProt Q05586+Q13224), sequence (Q13224 27-1484, other chains not shown): as above

[3] = HEK293 cells expressing NR1/NR2B, Ca2+ influx
[4] = HEK293 cells expressing NR1/NR2B, Ca2+ influx, binned NR2B NAM IC50

Structure (SMILES)	IC50 (NR1/NR2B [1]; [3])	IC50 (NR1/NR2B [2]; [4]) [µM]	IC50 (NR1/NR2B [1]) [µM]	IC50 (NR1/NR2B [2]) [µM]
O=C(CN1C[C@@H]2C[C@@](O)(Cc3ccccc3)C[C@@H]2C1)c1cnc(OCc2ccccc2)cn1 [Example 162, 2-((3aR,5r,6aS)-5-benzyl-5-hydroxyhexahydrocyclo-penta[c]pyrrol-2(1H)-yl)-1-(5-(benzyloxy)pyrazin-2-yl)ethanone]	10 µM	> 10		
O=C(Nc1ccc(F)cc1)N1C[C@H]2C[C@@H](c3ccccc3)C[C@H]2C1 [Example 101, N-(4-fluorophenyl)-5-phenyl-octahydrocylcopenta[c] pyrrole-2-carboxamide]	10 µM	> 10		
CC(=O)Nc1ccc(C(=O)CN2C[C@@H]3C[C@@](O)(Cc4ccccc4)C[C@@H]3C2)cc1 [Example 141, N-(4-(2-((3aR,5r,6aS)-5-benzyl-5-hydroxyhexahydrocyclo-penta[c]pyrrol-2(1H)-yl)acetyl)phenyl) acetamide]	10 µM	> 10		
O=C(CN1C[C@@H]2C[C@@](O)(Cc3ccccc3)C[C@@H]2C1)c1cccc(-c2ccccc2)c1 [Example 268, 1-([1,1′-biphenyl]-3-yl)-2-((3aR,5r,6aS)-5-benzyl-5-hydroxyhexahydrocyclo-penta[c]pyrrol-2(1H)-yl)ethanone]	10 µM	> 10		
O=C(CN1C[C@@H]2C[C@@](O)(Cc3c(F)cccc3F)C[C@@H]2C1)c1ccc(O)cc1 [Example 241, 2-[(3aR,5R,6aS)-5-[(2,6-difluorophenyl)methyl]-5-hydroxy-octahydrocyclopenta[c]pyrrol-2-yl]-1-(4-hydroxyphenyl)ethan-1-one]	0.118 µM	0.1 to 1		
Cc1cccc(NC(=O)N2C[C@@H]3C[C@@](O)(Cc4ccccc4)C[C@@H]3C2)c1 [Example 129, (3aR,5r,6aS)-5-benzyl-5-hydroxy-N-(m-tolyl)hexahydrocyclo-penta[c]pyrrole-2(1H)-carboxamide]	10 µM	> 10		
O=C(CN1C[C@H]2C[C@H](Cc3ccccc3)C[C@H]2C1)c1ccc(O)cc1 [Example 305, 2-[(3aR,5R,6aS)-5-benzyl-octahydrocyclopenta[c]pyrrol-2-yl]-1-(4-hydroxyphenyl)ethan-1-one]	0.0535 µM	< 0.1		
O=C(Nc1ccccc1)N1C[C@@H]2C[C@@](O)(c3ccccc3)C[C@@H]2C1 [Example 25, 5-hydroxy-N,5-diphenyl-octahydrocyclopenta[c] pyrrole-2-carboxamide]	10 µM	> 10		
O=C(CN1C[C@@H]2C[C@@](O)(Cc3ccccc3)C[C@@H]2C1)c1ccc(-c2ccccn2)cc1 [Example 266, 2-((3aR,5r,6aS)-5-benzyl-5-hydroxyhexahydrocyclo-prenta[c]pyrrol-2(1H)-yl)-1-(4-(pyridin-2-yl)phenyl)ethanone]	10 µM	> 10		
COc1cccc(NC(=O)N2C[C@H]3C[C@@H](c4ccccc4)C[C@H]3C2)c1 [Example 104, N-(3-methoxyphenyl)-5-phenyl-octahydrocyclopenta[c] pyrrole-2-carboxamide]	10 µM	> 10		
Cc1ccccc1C[C@]1(O)C[C@H]2CN(CC(=O)c3ccc(O)cc3)C[C@H]2C1 [Example 183, 2-((3aR,5r,6aS)-5-hydroxy-5-(2-methylbenzyl)hexahydro-cyclopenta[c]pyrrol-2(1H)-yl)-1-(4-hydroxyphenyl)ethanone]	0.145 µM	0.1 to 1		
O=C(CN1C[C@@H]2C[C@@](O)(Cc3ccccc3)C[C@@H]2C1)c1ccc(O)c(F)n1 [Example 190, 2-((3aR,5r,6aS)-5-benzyl-5-hydroxyhexahydrocyclo-penta[c]pyrrol-2(1H)-yl)-1-(6-fluoro-5-hydroxypyridin-2-yl)ethanone]	10 µM	> 10		
O=C(CN1C[C@@H]2C[C@@](O)(Cc3ccccc3)C[C@@H]2C1)c1ccc2[nH]nnc2c1 [Example 167, 2-[(3aR,5R,6aS)-5-benzyl-5-hydroxy-octahydrocyclopenta[c]pyrrol-2-yl]-1-(1H-1,2,3-benzotriazol-5-yl)ethan-1-one]	10 µM	> 10		
O=C(CN1C[C@@H]2C[C@@](O)(Cc3ccccc3)C[C@@H]2C1)c1cnc(O)cn1 [Example 187, 2-((3aR,5r,6aS)-5-benzyl-5-hydroxyhexahydrocyclo-penta[c]pyrrol-2(1H)-yl)-1-(5-hydroxypyrazin-2-yl)ethanone]	10 µM	> 10		
O=C(CN1C[C@@H]2C[C@@](O)(Cc3cccc(F)c3F)C[C@@H]2C1)c1ccc(O)cn1 [Example 247, 2-((3aR,5r,6aS)-5-(2,3-difluorobenzyl)-5-hydroxyhexahydrocyclo-penta[c]pyrrol-2(1H)-yl)-1-(5-hydroxypyridin-2-yl)ethanone]	3.06 µM	1 to 10		
CC(C)(O)c1ccc(C(=O)CN2C[C@@H]3C[C@@](O)(Cc4ccccc4)C[C@@H]3C2)cc1 [Example 138, 2-((3aR,5r,6aS)-5-benzyl-5-hydroxyhexahydrocyclo-penta[c]pyrrol-2(1H)-yl)-1-(4-(2-hydroxypropan-2-yl)phenyl)ethanone]	10 µM	> 10		

Structure (SMILES)	IC50 (NR1/NR2B [1]; [3])	IC50 (NR1/NR2B [2]; [4]) [µM]	IC50 (NR1/NR2B [1]) [µM]	IC50 (NR1/NR2B [2]) [µM]
O=C(CN1C[C@@H]2C[C@@](O)(Cc3ccc(F)cc3)C[C@@H]2C1)c1ccc(O)c(F)c1 [Example 169, 1-(3-fluoro-4-hydroxyphenyl)-2-((3aR,5r,6aS)-5-(4-fluorobenzyl)-5-hydroxyhexahydrocyclo-penta[c]pyrrol-2(1H)-yl)ethanone]	0.117 µM	0.1 to 1		
Oc1ccc([C@@H](O)CN2C[C@@H]3C[C@](F)(Cc4ccccc4)C[C@@H]3C2)cc1 [Example 314, 4-((R)-2-((3aR,5S,6aS)-5-benzyl-5-fluoro-hexahydrocyclopen-ta[c]pyrrol-2(1H)-yl)-1-hydroxyethyl)phenol]	0.414 µM	0.1 to 1		
Oc1ccc([C@@H](O)CN2C[C@@H]3C[C@](O)(Cc4ccccc4)C[C@@H]3C2)cc1 [Example 2291, (3aR,5R,6aS)-5-benzyl-2-((R)-2-hydroxy-2-(4-hydroxyphenyl)ethyl) octahydrocyclopenta [c]pyrrol-5-ol]	0.332 µM	0.1 to 1		
CC(C)(C)c1ccc([C@]2(O)C[C@H]3CN(C(=O)Nc4ccccc4)C[C@H]3C2)cc1 [Example 54]	10 µM	> 10		
Cc1ccc(NC(=O)N2C[C@@H]3C[C@@](O)(Cc4ccccc4)C[C@@H]3C2)c(C)c1 [Example 121, (3aR,5r,6aS)-5-benzyl-N-(2,4-dimethylphenyl)-5-hydroxyhexahydrocyclo-penta[c]pyrrole-2(1H)-carboxamide]	10 µM	> 10		
O=C(CN1C[C@@H]2C[C@@](O)(Cc3ccc(C(F)(F)F)cc3)C[C@@H]2C1)c1ccc(O)cn1 [Example 216, 2-[(3aR,5R,6aS)-5-hydroxy-5-{[4-(trifluoromethyl)phenyl]methyl}-octahydrocyclopenta[c]pyrrol-2-yl]-1-(5-hydroxypyridin-2-yl)ethan-1-one]	0.803 µM	0.1 to 1		
O=C(CN1C[C@@H]2C[C@@](O)(Cc3c(F)cccc3F)C[C@@H]2C1)c1ccc(O)cn1 [Example 237, 2-[(3aR,5R,6aS)-5-[(2,6-difluorophenyl)methyl]-5-hydroxy-octahydrocyclopenta[c]pyrrol-2-yl]-1-(5-hydroxypyridin-2-yl)ethan-1-one]	1.91 µM	1 to 10		
O=C(CN1C[C@@H]2C[C@@](O)(Cc3ccccc3)C[C@@H]2C1)c1ccc(=O)[nH]n1 [Example 157, 6-(2-((3aR,5r,6aS)-5-benzyl-5-hydroxyhexahydrocyclo-penta[c]pyrrol-2(1H)-yl)acetyl)pyridazin-3(2H)-one]	10 µM	> 10		
COc1cccc(NC(=O)N2C[C@@H]3C[C@@](O)(c4cccc(OC)c4)C[C@@H]3C2)c1 [Example 18, 5-hydroxy-N,5-bis(3-methoxyphenyl)-octahydrocyclopenta[c] pyrrole-2-carboxamide]	10 µM	> 10		
COc1ccc(C)cc1NC(=O)N1C[C@@H]2C[C@@](O)(c3ccccc3)C[C@@H]2C1 [Example 27, 5-hydroxy-N-(2-methoxy-5-methylphenyl)-5-phenyl-octahydrocyclopenta[c] pyrrole-2-carboxamide]			10	> 10
Oc1ccc([C@@H](O)CN2C[C@@H]3C[C@@](O)(Cc4ccccc4)C[C@@H]3C2)cc1F [Example 180, (3aR,5R,6aS)-5-benzyl-2-((R)-2-(3-fluoro-4-hydroxyphenyl)-2-hydroxyethyl)octahydro-cyclopenta[c]pyrrol-5-ol]	0.0223 µM and 0.0228 µM	< 0.1		
Oc1ccc([C@@H](O)CN2C[C@@H]3C[C@@](O)(Cc4ccc(F)cc4)C[C@@H]3C2)nc1 [Example 255, (3aR,5S,6aS)-5-(4-fluorobenzyl)-2-((S)-2-hydroxy-2-(5-hydroxypyridin-2-yl)ethyl)octahydrocyclo-penta[c]pyrrol-5-ol]	0.024 µM	< 0.1		
Cc1ccc(NC(=O)N2C[C@@H]3C[C@@](O)(c4ccccc4)C[C@@H]3C2)cc1 [Example 3, 5-hydroxy-N-(4-methylphenyl)-5-phenyl-octahydrocyclopenta[c] pyrrole-2-carboxamide]		> 10	10	
CC(C)(C)c1ccc([C@]2(O)C[C@H]3CN(C(=O)Nc4ccc(Cl)c(C(F)(F)F)c4)C[C@H]3C2)cc1 [Example 53]	10 µM	> 10		
Cc1cccc(-c2ccc(C(=O)CN3C[C@@H]4C[C@@](O)(CCc5ccccc5)C[C@@H]4C3)cc2)c1 [Example 277]	10 µM	> 10		
